From patent publication US11213516B2, “Intravaginally applicable devices comprising antiviral compounds” (AICURIS ANTI-INFECTIVE CURES GMBH, priority 2017, dated 2022)
“And” between values parts separate entries of the source, which are not always exact repeats. Equal entries are not always repeated. Marks after values point to notes of the source that are not given here.

Columns and labels:
[1] = Plasma concentration after intravaginal administration of vaginal ring; assay type: in vivo, Cynomolgus monkeys; details: for Plasma concentration of Pritelivir free base: individual animals; for Plasma concentration of Pritelivir free base, Mean: group mean
Procedure: (§1) The study was performed in four single dose phases with 28-day sampling period after Phases 1 and 2 (7-day washout period between doses). Vaginal rings were investigated for Pritelivir free base and Pritelivir mesylate salt at two dose levels per formulation. The test items were applied as vaginal ring in Phases 1 and 2 to female monkeys. The study design is below in the Table 3.
Venous blood samples were taken from all animals at the following times in relation to dosing.
• Blood sample site Femoral site • Blood volume 1.0 mL • Anticoagulant For phase 1 samples, Day 1-3 only, blood was sampled into standard HLS vials containing lithium heparin and 20 μL aqueous phosphoric acid (3.5 molar). Thereafter, blood was collected into tubes containing lithium heparin only. Plasma was obtained from all samples by centrifugation. Samples were appropriately labeled and stored deep frozen (−20° C. or below) until analysis • Total no. of blood samples 350 Vaginal Fluid Sampling
(§2) After suitable dilution, plasma and vaginal samples were analyzed on UPLC system Waters Acquity UPLC-HSS PFP column with 1.8 μm particles (100×2.1 mm) by gradient elution using 0.1% formic acid and methanol containing 0.1% formic acid. For detection, a time-of-flight mass spectrometer (Xevo GS-2 QTOF, Waters) was used operating in positive ionization mode (MSe analysis). The samples were analyzed for their content of Pritelivir free base.
The study was designed to obtain information on the time-course of unchanged test compound concentrations in plasma and vaginal fluid/tissue, following single intravaginal administration of rings to female Cynomolgus monkeys. Objectives of this study were to determine the safety and tolerance of Pritelivir loaded rings, as well as systemic and local exposure (plasma, vaginal fluid and vaginal and vulval tissue, respectively). Local exposures were compared with in vitro efficacy data of Pritelivir to get an idea on initial pharmacokinetic/pharmacodynamic (PK/PD) parameters for vaginal rings, i.e. to assess the potential ability of a Pritelivir loaded ring to suppress viral replication in the target tissue. Table 9 gives an overview on the EC50 values of Pritelivir on HSV-1 and HSV-2 Data source: Field, H. J., et al., Baseline sensitivity of HSV-1 and HSV-2 clinical isolates and defined acyclovir-resistant strains to the helicase-primase inhibitor pritelivir. Antiviral Res, 2013. 100(2): p. 297-9. EC50=50% effective concentration.

[2] = Vulval tissue (biopsy) concentration after intravaginal administration of vaginal ring; assay type: in vivo, Cynomolgus monkeys; details: ring 40 mg free base; Phase 1; Day 28; per animal; biopsy weight estimated
Procedure: as §1
Vulval and vaginal biopsies were taken from all animals at the following times in relation to dosing.
For the sampling biopsies were taken with a suitable biopsy instrument. Biopsy samples were snap frozen on dry ice following collection and stored deep frozen (−20° C. or below) until analysis.
as §2
Vaginal and vulval biopsies were taken 28 Days after administration of intravaginal rings. As biopsies were not weighed prior extraction, weights were estimated based on data from similar investigations using the same settings for biopsies. From this study minimum, maximum, and mean biopsy weight was used for the calculation. These biopsy weights ranged from 0.7 to 6.3 mg, mean 2.95 mg. For all calculations it was assumed that 1 kg tissue is equal to 1 L water.

[3] = ring 40 mg free base, Phase 1 Group 1, 2 d
[4] = ring 40 mg free base, Phase 1 Group 1, 3 d
[5] = ring 240 mg free base, Phase 2 Group 1, 2 d
[6] = ring 240 mg free base, Phase 2 Group 1, 3 d
[7] = ring 240 mg free base, Phase 2 Group 1, 4 d
[8] = ring 240 mg free base, Phase 2 Group 1, 7 d
[9] = ring 240 mg free base, Phase 2 Group 1, 10 d
[10] = ring 240 mg free base, Phase 2 Group 1, 14 d
[11] = ring 240 mg free base, Phase 2 Group 1, 17 d
[12] = ring 240 mg free base, Phase 2 Group 1, 21 d
[13] = ring 240 mg free base, Phase 2 Group 1, 24 d
[14] = ring 240 mg free base, Phase 2 Group 1, 28 d

Plasma concentration of Pritelivir free base ([1]; ring 40 mg free base, Phase 1 Group 1, 0.167 d): 6.90 ^ μg/L and 7.56 ^ μg/L
Plasma concentration of Pritelivir free base, Mean [1, 3]: 10.2 ^ μg/L
Plasma concentration of Pritelivir free base, Mean [1, 4]: 9.20 ^ μg/L
Plasma concentration of Pritelivir free base ([1]; ring 40 mg free base, Phase 1 Group 1, 21 d): 3.08 ^a μg/L and 2.67 ^a μg/L
Plasma concentration of Pritelivir free base ([1]; ring 40 mg free base, Phase 1 Group 1, 24 d): 2.77 ^a μg/L
Plasma concentration of Pritelivir free base ([1]; ring 40 mg free base, Phase 1 Group 1, 28 d): 2.76 ^a μg/L and 3.00 ^a μg/L
Plasma concentration of Pritelivir free base ([1]; ring 240 mg free base, Phase 2 Group 1, 0.0417 d): 2.96 ^a μg/L
Plasma concentration of Pritelivir free base ([1]; ring 240 mg free base, Phase 2 Group 1, 0.0833 d): 2.95 ^a μg/L
Plasma concentration of Pritelivir free base, Mean [1, 5]: 14.3 ^ μg/L
Plasma concentration of Pritelivir free base [1, 5]: 10.1 ^ μg/L and 23.0 μg/L and 9.89 μg/L
Plasma concentration of Pritelivir free base, Mean [1, 6]: 17.0 ^ μg/L
Plasma concentration of Pritelivir free base, Mean [1, 7]: 17.0 ^ μg/L
Plasma concentration of Pritelivir free base, Mean [1, 8]: 13.1 ^ μg/L
Plasma concentration of Pritelivir free base, Mean [1, 9]: 8.80 ^ μg/L
Plasma concentration of Pritelivir free base, Mean [1, 10]: 8.70 ^ μg/L
Plasma concentration of Pritelivir free base, Mean [1, 11]: 8.67 ^ μg/L
Plasma concentration of Pritelivir free base, Mean [1, 12]: 6.97 ^ μg/L
Plasma concentration of Pritelivir free base, Mean [1, 13]: 8.97 ^ μg/L
Plasma concentration of Pritelivir free base, Mean [1, 14]: 8.79 ^ μg/L
Vulval tissue concentration of Pritelivir free base, Max [2]: <2.0 µg/g and 0.134 µg/g and 0.742 µg/g
Vulval tissue concentration of Pritelivir free base, Mean [2]: <2.0 µg/g and 0.0318 µg/g and 0.176 µg/g
SMILES: Cc1nc(N(C)C(=O)Cc2ccc(-c3ccccn3)cc2)sc1S(N)(=O)=O [Pritelivir free base]
Plasma concentration of Pritelivir free base ([1]; ring 40 mg free base, Phase 1 Group 1, 0.333 d): 8.54 ^ μg/L and 10.9 ^ μg/L and 3.97 ^ μg/L
Plasma concentration of Pritelivir free base [1, 3]: 4.07 ^ μg/L and 11.6 ^ μg/L and 18.3 ^ μg/L and 6.75 ^ μg/L
Plasma concentration of Pritelivir free base [1, 4]: 4.80 ^ μg/L and 7.29 ^ μg/L and 18.4 ^ μg/L and 6.30 ^ μg/L
Plasma concentration of Pritelivir free base ([1]; ring 40 mg free base, Phase 1 Group 1, 4 d): 3.41 ^a μg/L and 5.30 ^ μg/L and 3.51 ^a μg/L
Plasma concentration of Pritelivir free base ([1]; ring 40 mg free base, Phase 1 Group 1, 7 d): 3.22 ^a μg/L and 3.86 ^a μg/L and 4.00 ^ μg/L
Plasma concentration of Pritelivir free base ([1]; ring 40 mg free base, Phase 1 Group 1, 10 d): 3.02 ^a μg/L and 3.74 ^a μg/L and 2.75 ^a μg/L
Plasma concentration of Pritelivir free base ([1]; ring 40 mg free base, Phase 1 Group 1, 14 d): 2.83 ^a μg/L and 4.32 ^ μg/L and 3.29 ^a μg/L
Plasma concentration of Pritelivir free base ([1]; ring 40 mg free base, Phase 1 Group 1, 17 d): 4.08 ^ μg/L and 3.48 ^a μg/L and 2.59 ^a μg/L
Plasma concentration of Pritelivir free base ([1]; ring 240 mg free base, Phase 2 Group 1, 0.167 d): 2.82 ^a μg/L and 8.45 μg/L and 4.56 μg/L and 2.49 ^a μg/L
Plasma concentration of Pritelivir free base ([1]; ring 240 mg free base, Phase 2 Group 1, 0.333 d): 3.78 ^a μg/L and 10.1 μg/L and 5.80 μg/L and 3.79 ^a μg/L
Plasma concentration of Pritelivir free base [1, 6]: 15.6 ^ μg/L and 15.2 μg/L and 10.2 ^ μg/L
Plasma concentration of Pritelivir free base [1, 7]: 13.9 ^ μg/L and 16.1 μg/L and 12.2 ^ μg/L
Plasma concentration of Pritelivir free base [1, 8]: 11.8 ^ μg/L and 14.2 μg/L and 10.3 ^ μg/L
Plasma concentration of Pritelivir free base [1, 9]: 8.27 ^ μg/L and 9.04 μg/L and 8.43 ^ μg/L
Plasma concentration of Pritelivir free base [1, 10]: 6.33 ^ μg/L and 8.33 μg/L and 10.6 ^ μg/L
Plasma concentration of Pritelivir free base [1, 11]: 5.58 ^ μg/L and 9.84 μg/L and 8.41 ^ μg/L
Plasma concentration of Pritelivir free base [1, 12]: 6.02 ^ μg/L and 8.37 μg/L and 5.71 ^ μg/L
Plasma concentration of Pritelivir free base [1, 13]: 4.96 ^ μg/L and 11.3 μg/L and 9.86 ^ μg/L
Plasma concentration of Pritelivir free base [1, 14]: 5.57 ^ μg/L and 9.32 μg/L and 7.55 ^ μg/L
Vulval tissue concentration of Pritelivir free base, Min [2]: <2.0 µg/g and 0.0149 µg/g and 0.0825 µg/g
